We go through two compounds from article PMC8619920, “New Polyesterified Ursane Derivatives from Leaves of Maesa membranacea and Their Cytotoxic Activity” (Molecules, 2021).

The nature of data set [1]: Cytotoxicity, LDH assay, HaCaT cells. The format is cell-based, human. The conditions noted are these: human, 24 h, mean ± SD of three, read-out: Cell viability HaCaT; for viability at 24 h, 100 μg/mL: HaCaT immortalized keratinocytes; for viability at 24 h, 5 μg/mL / viability at 24 h, 10 μg/mL / viability at 24 h, 20 μg/mL / viability at 24 h, 30 μg/mL / viability at 24 h, 40 μg/mL / viability at 24 h, 50 μg/mL: HaCaT keratinocytes. The procedure: (§1) Cytotoxic activity was tested on human cancer and normal cells, grouped in three panels, namely: prostate, skin and gastrointestinal. The prostate panel consisted of prostate cancer cell lines Du145 (ATCC HTB-81) and PC3 (ATCC CRL-1435), and prostate epithelial cells PNT-2 (ECACC 95012613). Melanoma cell lines A375 (ATCC CRL-1619) and HTB140 (ATCC Hs 294T) together with skin keratinocytes HaCaT (obtained as a kind gift of prof. Marta Michalik, Department of Cell Biology, Jagiellonian University, Kraków, Poland) were included into the skin panel. The gastrointestinal panel of cells comprised colon cancer cell lines Caco-2 (ATCC HTB-37) and HT29 (ATCC HTB-38). Du145 cells were grown in Modified Eagle’s Medium with low (1.0 g/L) glucose concentration, HT29, PC3 and PNT-2 cells in Dulbecco’s Modified Eagle’s Media: F12 HAM Nutrient Mixture, Caco-2 in Modified Eagle’s Medium with NEAA (no-essential amino acids) while melanoma cells and keratinocytes were maintained in Modified Eagle’s Medium with high (4.5 g/L) glucose concentration. The culture media (all supplied by Sigma-Aldrich Co.; St. Louis, MO, USA) contained antibiotics and 10% fetal bovine serum (FBS). All cultures were maintained at 37 °C, in a humidified, 5% CO2 containing, atmosphere.
(§2) The examined triterpenes were diluted in the culture media from freshly made stock solutions in MeOH (10 mg/mL) to the working concentrations (from 0 to 100 μg/mL).
(§3) Cell viability was determined as it was described previously. Cells suspended in the nutrient medium were transferred into 96-well microtiter plates (density 1.5 × 10^4 per well), and preincubated for 24 h (37 °C, 5% CO2). Then, the culture medium was replaced with the medium containing different concentrations of 1 or 2 (1–100 μg/mL). After 24 h of incubation, viability of the cells was determined using colorimetric lactate dehydrogenase (LDH) assay, in comparison to the controls to which corresponding aliquots of MeOH diluted with culture media were added. Cells grown in the medium without the tested compounds were used as control I (negative) and the positive control (control II) was obtained by incubation of the cells in the medium containing 1% Triton X-100. LDH released from the damaged cells into the cell culture medium was quantified by measuring the absorbance at 490 nm using Synergy II Biotek (BioTek Instruments, Winooski, VT, USA) microplate reader. Cytotoxicities of the examined compounds were calculated as follows: [(absorbance of the tested sample − absorbance of control I)/(absorbance of control II − absorbance of control I)] × 100. Results were means of three independent measurements (± SD). Doxorubicin (Ebewe Pharma GmbH., Unterach, Austria) was used as a reference cytostatic drug. The IC50 values were determined by plotting the percentage viability of the cells versus concentration and the adequate calculations made using AAT Bioquest website program (https://www.aatbio.com/tools/ic50-calculator, accessed on 29 October 2021).

A short description of data set [2]: Cytotoxicity, LDH assay, DU145 cells. It is filed as cell-based, human. The conditions noted are these: human, DU145 prostate carcinoma cells, 24 h, mean ± SD of three, read-out: Cell viability DU145. The procedure:
as §1, §2, §3

In data set [3] the test system is DU145 human prostate carcinoma cells. Description: Cytotoxicity, LDH assay, DU145 cells. The conditions noted are these: 24 h treatment; for IC50: Homo sapiens, DU-145, 24 h. The format is cell-based. The procedure:
as §1, §2, §3

With `CCC(C)C(=O)OC1C=C2C3C(C)C(C)(O)CC(OC(C)=O)C3(C)CCC2(C)C2(C)CC(OC(C)=O)C3C(C)(C)C(O)C(OC(C)=O)CC3(C)C12` (stereo not drawn) [Compound 1, 2α,6β,22α-triacetoxy-11α-(2-methylbutyryloxy)-urs-12-ene-3α,20β-diol], in data set [1], the viability (usually a read-out of living cells in per cent, often relative to untreated cells) at 24 h, 100 μg/mL amounted to 56.8 ± 2.2%; the viability at 24 h, 5 μg/mL worked out at 96.52 ± 0.8%; the viability at 24 h, 10 μg/mL is 94.9 ± 1%; the viability at 24 h, 20 μg/mL turned out to be 88.37 ± 0.47%. Besides, in data set [1], the viability at 24 h, 30 μg/mL came to 81.2 ± 1.77%; the viability at 24 h, 40 μg/mL came out at 74 ± 1.72%; the viability at 24 h, 50 μg/mL worked out at 65.7 ± 1.22%. In data set [2], the viability at 24 h, 5 μg/mL was found to be 93.19 ± 0.93%; the viability at 24 h, 10 μg/mL came to 83.1 ± 1.96%; the viability at 24 h, 20 μg/mL is 70.4 ± 1.69%; the viability at 24 h, 30 μg/mL was 57.2 ± 2.2%. For the same compound, in data set [2], the viability at 24 h, 40 μg/mL is 41.3 ± 1.91%; the viability at 24 h, 50 μg/mL was found to be 27.2 ± 2.28%; the viability at 24 h, 100 μg/mL was 9.87 ± 1.59%. Besides, in data set [3] (5–100 μg/mL), the “IC50 DU145” value is 35.83 µg/mL and the half-maximal inhibitory concentration (IC50) (commonly the concentration that inhibits the measured activity by half) was found to be 35.8 µg/mL. For the same compound, the IC50 in data set [3] (value in brackets, footnote d) turned out to be 50 µM.
For `CC(=O)OC1CC2(C)C(C(OC(C)=O)CC3(C)C2C(O)C=C2C4C(C)C(C)(O)CC(OC(C)=O)C4(C)CCC23C)C(C)(C)C1O` (stereo not drawn) [Compound 2, 2α,6β,22α-triacetoxy-urs-12-ene-3α,11α,20β-triol], in data set [1], the viability at 24 h, 100 μg/mL came to 54.3 ± 1.78%; the viability at 24 h, 5 μg/mL came to 96.84 ± 0.6%; the viability at 24 h, 10 μg/mL was determined as 94.5 ± 1.55%; the viability at 24 h, 20 μg/mL was found to be 90.6 ± 0.66%. Also, in data set [1], the viability at 24 h, 30 μg/mL was determined as 82.8 ± 1.23%; the viability at 24 h, 40 μg/mL came out at 75.7 ± 1.76%; the viability at 24 h, 50 μg/mL turned out to be 61.8 ± 1.55%. Moreover, in data set [2], the viability at 24 h, 5 μg/mL amounted to 97.3 ± 0.27%; the viability at 24 h, 10 μg/mL was found to be 94.54 ± 0.58%; the viability at 24 h, 20 μg/mL was determined as 90.07 ± 0.71%; the viability at 24 h, 30 μg/mL came to 83.2 ± 1.24%. Moreover, in data set [2], the viability at 24 h, 40 μg/mL was found to be 77.1 ± 1.63%; the viability at 24 h, 50 μg/mL is 68.6 ± 1.78%; the viability at 24 h, 100 μg/mL is 57.3 ± 1.9%. In addition, in data set [3] (5–100 μg/mL), the IC50 is above 100 µg/mL.
